This note sets out measurements from the NIST ThermoML archive (doi:10.1016/j.jct.2018.12.044).

The conditions of the series: Crystal; DTA.

± gives the expanded uncertainty stated by the source.

On to `CC[C@H]1OC(=O)[C@H](C)[C@@H](O[C@H]2C[C@@](C)(OC)[C@@H](O)[C@H](C)O2)[C@H](C)[C@@H](O[C@@H]2O[C@H](C)C[C@H](N(C)C)[C@H]2O)[C@](C)(O)C[C@@H](C)[C@@H]2N[C@@H](COCCOC)O[C@H]([C@H]2C)[C@]1(C)O` [Dirithromycin], for which the Normal melting temperature worked out at 194.36 ± 6 °C.
